Data set [1] is described as follows: Decomposition point temperature by thermal gravimetric analysis. It counts as physicochemical. The protocol: The decomposition point temperature, or the temperature at which a material burns or decomposes, of the antifoulants must be above the processing temperature of the polymer. As determined by thermal gravimetric analysis, the decomposition point temperatures are 210° C. for capsaicin, 208° C. for Diuron, and 196° C. for Irgarol® 1051. The processing temperatures for melt extrusion are: for PMMA, 125° C.; for CBDO terephthalates (Cycloshield®), 130° C., and for polycarbonate, 190° C. It is expected that the antibiofoulants will be entrained in the polymer matrices. This entrainment is a key to the antifouling properties of the coverglasses or windows as it is the chemical nature of the antibiofoulants that provides the antifouling properties. In a typical matrix with entrained compounds there will always be some of these compounds exposed at the surface. Further, depending on the nature of the matrix, there will also be some diffusion rate of the compounds throughout the material.

Data set [2] in a line: Leaching rate of algaecides from PMMA substrates in water, by UV spectroscopy. The data set is classed as physicochemical. As to conditions: for leach rate: deionized water, 35 days; for leaching into test tanks: after five months, up to the limit of the spectrometer. The protocol:
The effective lifetimes of the antifoulant-containing coverglass materials were tested by studying the leaching rate of the algaecides from PMMA substrates in water. The UV absorption bands of Diuron (at 254 nm) and Irgarol® (at 234 nm) were used to detect their presence in aqueous solutions. To study the leaching rate, duplicate samples of the highest concentration of algaecide in PMMA (4% by weight for Diuron and 0.5% for Irgarol®; three samples each) were placed in separate closed containers of ultra-pure deionized water (18 MΩ purity). After 35 days, the concentration of algaecide that had leached into the water was determined by UV spectroscopy using a standard Beer-Lambert law relationship:
Where A is the absorbance of the compound, ε is the extinction coefficient associated with the compound, l is the cell path length, and C is the concentration of the compound. By establishing a suitable set of calibration curves, ε can be calculated from empirical results. A set of calibration curves for both Diuron and Irgarol® was established from 10^−3 M to 10^−7 M in aqueous solution. A Mineral Light Short Wave UV source was used to provide the input light, while the absorption of the samples was collected with the Ocean Optics S2000 previously discussed. Aqueous samples were placed into closed quartz cuvettes for analysis. For the UV measurements the Ocean Optics spectrometer was equipped with a UV transmissive fiber optic cable and spectra collected from 200 nm to 575 nm. Absorbance was measured at the previously mentioned values. A reference sample of ultra-pure deionized water was used for this study.
The study determined that the lower limit of the spectrometer was approximately 10^−5 M concentration for these algaecides. […] That compares favorably to the reported leach rate of 4.04 μg cm^−2 days^−1 reported for leaching of Irgarol® from marine paints.

The subject of another data set is Chlorella capsulata. In words: Algae growth on antifoulant-loaded PMMA samples suspended 35 days in a salt water aquarium, read by optical transmission. It counts as cell-based. To be noted: 35 days in algae tank; for effect on algae growth: antifoulant in solvent-cast PMMA sheet. The protocol: To test the antifoulant properties of the capsaicin-loaded PMMA and the mixtures of algaecides and polymers, a marine environment was established. Tests were performed in a salt water environment as opposed to a freshwater environment due to the aggressive growth of salt water plants and animals. The supposition is that if the antifoulant-doped coverglass works in a salt water environment, it will work in a fresh water environment. Using a standard 5-gallon aquarium, the salt water environment was set up using a commercially available sea salt solution (INSTANT OCEAN®). The solution was prepared to have a specific gravity of 1.020-1.023, a pH of ˜8.3, and a water temperature of about 27° C. A small aliquot of Chlorella capsulata (a known aggressive biofouling algae) was obtained from the UTEX Culture Collection of Algae and grown in the aquarium. Growth of the algae was further enhanced using an algae growth promoter (KENT PRO-CULTURE). After four weeks of growth, a dense algae growth was present in the aquarium.
PMMA/capsaicin samples of varying capsaicin concentration were prepared as previously described. The samples to be tested were cut into 25×25 mm squares and suspended in the aquarium. To ensure that no location-dependent effects were incorporated into the study, the samples were rotated every few days. The aquarium lights and air system were left running at all times. The samples were left in place for 35 days.
After 35 days, the samples were removed from the tank and rinsed carefully with deionized water to remove any adhering salts. The algae coated samples were then tested for their optical transmission properties using the Ocean Optics SD2000 UV-Vis spectrometer. To properly hold and test the samples, samples wetted with a couple of drops of deionized water were placed in between two standard 1″×3″ microscope slides. […] In fact, algae grew better on the samples with a higher concentration of capsaicin.
Algae growth studies similar to that conducted for the capsaicin-loaded PMMA were then conducted for the Diuron/PMMA and Irgarol®/PMMA samples. […]

For data set [3] the following is noted: leaching from marine paints, reported value; cited from earlier work.

In data set [1], `CN(C)C(=O)Nc1ccc(Cl)c(Cl)c1` [Diuron, 3-(3,4-dichlorophenyl)-1,1-dimethylurea] had a decomposition point temperature of 208 °C. For the same compound, the leach rate result in data set [2] (4% by weight Diuron in PMMA, no absorption at 254 nm) is recorded as “below 1.67 μg cm^−2 days^−1”. The “leaching into test tanks” value in data set [2] is recorded as “no evidence was found”. In addition, in the data set on Chlorella capsulata, the “effect on algae growth” value is given as “no sign of algae growth”.
As for `CSc1nc(NC2CC2)nc(NC(C)(C)C)n1` [Irgarol®, N-(tert-butyl)-N′-cyclopropyl-6-(methylthio)-1,3,5-triazine-2,4-diamine], the decomposition point temperature in data set [1] worked out at 196 °C. The “reported leach rate from marine paints” value in data set [3] is 4.04 μg cm^−2 days^−1. In addition, the leach rate in data set [2] (0.5% Irgarol in PMMA, no absorption at 234 nm) is on record as below 1.81 μg cm^−2 day^−1. The “leaching into test tanks” value in data set [2] is reported as “no evidence was found”.
`COc1cc(CNC(=O)CCCC/C=C/C(C)C)ccc1O` [capsaicin] gave a decomposition point temperature in data set [1] of 210 °C. Also, the “loss of visible transmission after algae growth” value in the data set with Chlorella capsulata (PMMA/capsaicin samples of varying capsaicin concentration) was “the greater the concentration of capsaicin, the greater was the loss of transmission”. Besides, in the data set with Chlorella capsulata, the “effect on algae growth” value is “no effect in decreasing algae growth”.

Values taken from patent US20080194732A1, “Optically transparent polymer with antibiofouling properties” (priority 2007, published 2008).
